Laboratory results taken from patent EP0612845A2 (priority 1993, dated 1994).
Where two headings read alike, the source gives them in different places.

How the values were obtained:
[1] = target: T1, m-opiate receptor (mOR) cDNA RC8-1 expressed in COS cells (Rattus norvegicus, UniProt P33535); type: binding
T1 construct: expressed in transfected cells; host or cells: COS cells, transient electroporation with pcDNA1RC8-1; membranes

[2] = test system: [¹²⁵I]b-Endorphin: Opioid Receptor Complex; test: Dissociation of the solubilized R:L complex, measured by binding to WGA-agarose; type: biochemical, rat
[3] = target: rat brain opioid receptor; test: Competition with [125I]b-endorphin for binding to rat brain membranes (analytical microtiter plate assay)
Method: Whole male rat brains frozen in liquid N₂ are purchased from Pel-Freez (Rogers, AR). All procedures for membrane preparation are carried out at a temperature of 2-6 °C. The brains are homogenized in a Waring blender in a buffer containing 1 mM Na-bicarbonate (pH 7.2), 1 mM EDTA, 1 mM EGTA (all chemicals from Sigma Chemical, St. Louis, MO) and 0.7% (vol./vol.) of the 100X 4Pase protease inhibitor mixture (see "Protease Inhibitors" below). The ratio of tissue/homogenization medium is from 25-35 gm of brain/500 ml. The blender is controlled through a variable output rheostat (Staco Energy Products, Dayton, OH; type 3PN1010) at a setting of 40. The homogenate is centrifuged for 10 minutes at 1,000 x g pellet is rehomeginized in 500 ml of homogenization medium and recentrifuged for 10 minutes at 1,000 x g. The 1,000 x g pellet is discarded. The 1,000 x g supernatants are combined and centrifuged for 30 minutes at 20,000 x g. The 20,000 x g membrane pellet is washed by being resuspended with a Dounce homogenizer in 500 ml of homogenization medium supplemented with 10 mM EDTA (pH readjusted to 7.4) and then washed twice by being resuspended in 25 mM Tris buffer (Sigma Chemical Co.; pH 7.4) and centrifuged for 25 minutes at 20,000 x g. The final membrane pellet is resuspended in 25 mM inhibitor mixture to a protein concentration of 4-12 mg/ml. The resuspended membranes are aliquoted, frozen on dry ice and stored at -90 °C.
Binding of [¹²⁵I]-labelled b-endorphin, b-endorphin and other b-endorphin analogs and opioids is done in a binding buffer containing 50 mM HEPES (Sigma; pH 7.4; pHed with KOH), 0.1% (w/v) bovine serum albumin (Miles Laboratories, Elkhart, IN) and protease inhibitors as specified below for specific applications. All binding incubations are carried out at room temperature (20-23 °C). • A. Analytical - This assay is carried out in 96 well microtiter plates (Immulon II with snap-off wells; Dynatech, Chantille, VA). To carry out the assay, the following components are added to the wells in the order and volumes shown: (1) […] of nonlabelled ligand. For this purpose, ligands (for example b-endorphin or biotinylated b-endorphin) are made up at 40X the desired final concentration in the 40X P/B/Pz protease inhibitor mixture (Experimental Procedures. 4.C.) (2) […] of [¹²⁵I]b-endorphin in binding buffer + 1/100 volume of the 100X 4Pase protease inhibitor mixture; mix briefly on a microtiter plate shaker (Dynatech Micro-Shaker II, Dynatech, Chantilly, VA). (3) […] of rat brain membrane diluted in binding buffer + […] volume of 100X 4Pase to deliver […] of membrane protein per well. The plates are then covered with Linbro Mylar plate sealers (Flow Labs, McLean, VA) and incubated for 1 hour at room temperature (20-23 °C). The membranes are pelleted by centrifugation at 2,000 x g, the supernatants (containing nonbound ligands) are decanted and the pellets are washed by the addition of […] of ice cold binding buffer, brief shaking and recentrifugation. CPM of [¹²⁵I] in the final membrane pellets is then counted in a gamma counter (LKB Gammamaster 1277; 80% efficiency). • B. Preparative - Rat brain membranes are diluted to a concentration of 0.5 mg of membrane protein/ml in binding buffer containing 1/400 (vol./vol.) of the 400X P/B/Bz protease inhibitor mixture (see Section 4). […] In this case, the blocking ligand is added from 5-15 minutes prior to the addition of biotinyl-b-endorphin. In some cases only the blocking ligand is added. […]

[4] = target: T1, m-opiate receptor (mOR) cDNA RC8-1 expressed in COS cells; type: binding; remark: listed apart in the source
[5] = reanalysis, F1 fraction heated at 50°C for 5 min, read-out: IC50 for binding to receptors in rat brain membranes by competition vs. [¹²⁵I]b-endorphin (reanalysis)
[6] = competition with [¹²⁵I]b-endorphin, rat brain membranes, read-out: IC₅₀s for reduction of radioligand binding by competition with cold ligand

T1 sequence (P33535 whole entry): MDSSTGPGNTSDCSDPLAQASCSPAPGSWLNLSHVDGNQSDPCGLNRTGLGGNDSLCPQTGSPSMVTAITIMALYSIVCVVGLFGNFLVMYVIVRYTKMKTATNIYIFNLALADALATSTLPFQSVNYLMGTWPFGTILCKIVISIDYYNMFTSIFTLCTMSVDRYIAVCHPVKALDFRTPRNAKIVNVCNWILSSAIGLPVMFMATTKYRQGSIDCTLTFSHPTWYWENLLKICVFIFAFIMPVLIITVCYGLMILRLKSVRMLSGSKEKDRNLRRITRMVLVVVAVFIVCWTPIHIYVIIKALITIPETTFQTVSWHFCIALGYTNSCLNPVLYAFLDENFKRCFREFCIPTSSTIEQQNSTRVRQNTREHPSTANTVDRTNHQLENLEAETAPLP

CN1CC[C@]23CCCC[C@H]2[C@H]1Cc1ccc(O)cc13 [levorphan]
potency in displacing [³H]DAMGO binding relative to the pharmacologically inactive isomer [1]: substantially greater potency

Nc1nc2c(ncn2[C@@H]2O[C@H](COP(=O)(O)OP(=O)(O)OP(O)(O)=S)[C@@H](O)[C@H]2O)c(=O)[nH]1 [GTP-g-S]
dissociation of receptor from ligand ([2]; GTP analog alone, without NaCl): about 30% | % Decrease in R:L Complex ([2]; Table 1, 100 mM GTP-g-S, 10 minutes at room temperature): 34% | % Decrease in R:L Complex ([2]; Table 2, 100 mM GTP-g-S + 25 mM NaCl): 77% | % Decrease in R:L Complex ([2]; Table 2, 100 mM GTP-g-S + 50 mM NaCl): 90% | % Decrease in R:L Complex ([2]; Table 2, 100 mM GTP-g-S + 100 mM NaCl): 93% | % Decrease in R:L Complex ([2]; Table 2, 100 mM GTP-g-S alone): 24%

[biotinyl-Lys³²]b-endorphin [biotinyl-b-endorphin]
IC50 [3, 5]: 1.8 nM

ethylketocyclazocino
potency in displacing binding of [³H]DAMGO [1]: high potency

CCC12CCN(CC3(O)CC3)C(Cc3ccc(O)cc31)C2(C)C (centres unmarked) [bromazocino]
potency in displacing binding of [³H]DAMGO [1]: high potency

[biotinyl-Lys³²]b-endorphin [biotinyl-b-endorphin (F2)]
IC50 [3, 6]: 5 nM

[biotinyl-Lys³²]b-endorphin [biotinyl-b-endorphin (F1)]
IC50 [3, 6]: 1 nM

NaCl
effect of addition to incubations on [³H]DAMGO binding [4]: reduced

CN1CC[C@]23c4c5ccc(O)c4O[C@H]2[C@@H](O)C=C[C@H]3[C@H]1C5 [Morphine]
potency in displacing binding of [³H]DAMGO [1]: high potency

b-endorphin
IC50 [3, 6]: 1 nM | IC50 [3, 5]: 1.2 nM

Nc1nc2c(ncn2[C@@H]2O[C@H](COP(=O)(O)OP(=O)(O)OP(=O)(O)O)[C@@H](O)[C@H]2O)c(=O)[nH]1 [GTP]
effect of addition to incubations on [³H]DAMGO binding [4]: reduced
